The experiment deals with TRIM25 (Homo sapiens, UniProt Q14258). In kind it is cell-based. The arrangement: endogenous in cells.
Sequence of TRIM25 (Q14258 whole entry, species assumed): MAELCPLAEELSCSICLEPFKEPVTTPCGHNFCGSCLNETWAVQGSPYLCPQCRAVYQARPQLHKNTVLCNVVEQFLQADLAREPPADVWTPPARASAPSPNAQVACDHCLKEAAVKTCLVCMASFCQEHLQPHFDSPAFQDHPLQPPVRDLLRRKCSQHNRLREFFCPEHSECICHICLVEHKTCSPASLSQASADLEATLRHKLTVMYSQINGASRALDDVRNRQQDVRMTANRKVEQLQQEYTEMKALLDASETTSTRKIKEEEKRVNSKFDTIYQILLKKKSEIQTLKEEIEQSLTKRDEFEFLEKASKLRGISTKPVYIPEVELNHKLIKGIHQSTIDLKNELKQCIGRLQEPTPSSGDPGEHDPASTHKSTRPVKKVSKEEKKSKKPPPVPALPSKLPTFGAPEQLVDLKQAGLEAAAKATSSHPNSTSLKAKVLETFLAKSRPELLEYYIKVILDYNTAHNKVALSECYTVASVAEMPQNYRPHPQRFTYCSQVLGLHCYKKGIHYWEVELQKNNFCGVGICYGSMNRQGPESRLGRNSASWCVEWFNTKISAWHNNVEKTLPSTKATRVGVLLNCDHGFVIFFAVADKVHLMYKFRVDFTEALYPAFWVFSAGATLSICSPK

Regarding `C/C(=C\CC/C(C)=C/C[C@]1(O)C(=O)c2c(O)cc(C)c3c(O)c(C)c(O)c(c23)C1=O)CC/C=C(\CO)CC[C@@H](O)C(C)(C)O` [Compound C1], the “Anti-influenza activity after TRIM25 knockdown” value is given as “significantly affected” and the “Anti-influenza activity on overexpression of TRIM25 in TRIM25 knockout cell line” value is given as “restore the anti-influenza activity of compound C1 to a normal cell level”.

The values are drawn from patent US20240343666A1, “PERINAPHTHENONE COMPOUND AND USE THEREOF” (INSTITUTE OF MEDICINAL BIOTECHNOLOGY, CHINESE ACADEMY OF …, priority 2021, published 2024).
